These molecules were tested on human JAK1 (assay: In vitro JAK kinase assay (HTRF), JAK1). Conditions: ratio of JAK2 IC50 to JAK1 IC50 at 1 mM ATP.
Assay type: biochemical
Protocol: Compounds herein were tested for inhibitory activity of JAK targets according to the following in vitro assay described in Park et al., Analytical Biochemistry 1999, 269, 94-104. The catalytic domains of human JAK1 (a.a. 837-1142), JAK2 (a.a. 828-1132) and JAK3 (a.a. 781-1124) were expressed using baculovirus in insect cells and purified. The catalytic activity of JAK1, JAK2 or JAK3 was assayed by measuring the phosphorylation of a biotinylated peptide. The phosphorylated peptide was detected by homogenous time resolved fluorescence (HTRF). IC50s of compounds were measured for each kinase in the 40 μL reactions that contain the enzyme, ATP and 500 nM peptide in 50 mM Tris (pH 7.8) buffer with 100 mM NaCl, 5 mM DTT, and 0.1 mg/mL (0.01%) BSA. For the 1 mM IC50 measurements, ATP concentration in the reactions was 1 mM. Reactions were carried out at room temperature for 1 hour and then stopped with 20 μL 45 mM EDTA, 300 nM SA-APC, 6 nM Eu-Py20 in assay buffer (Perkin Elmer, Boston, Mass.). Binding to the Europium labeled antibody took place for 40 minutes and HTRF signal was measured on a PHERA star plate reader (BMG, Cary, N.C.). The Example compounds were each tested in the Example A assay (see Table 1 for data for the compounds of the examples as tested by the assay of Example A at 1 mM ATP).

| SMILES | JAK2/JAK1 |
| --- | --- |
| CCc1nc2cnc3ccsc3c2n1[C@@H]1CC[C@@H](CC#N)[C@@H](O)C1 (mixture of isomers) [Example 35] | >10 |
| C[C@@H](O)c1nc2cnc3ccsc3c2n1[C@H]1CC[C@H](CC#N)CC1 [Example 2, (trans-4-{2-[(1R)-1-Hydroxyethyl]-1H-imidazo[4,5-d]thieno[3,2-b]pyridin-1-yl}cyclohexyl)acetonitrile] | >10 |
| C[C@@H](O)c1nc2cnc3ccsc3c2n1[C@H]1CC[C@H](NCC(F)(F)F)CC1 [Example 4, (1R)-1-(1-{trans-4-[(2,2,2-Trifluoroethyl)amino]cyclohexyl}-1H-imidazo[4,5-d]thieno[3,2-b]pyridin-2-yl)ethanol] | >10 |
| C[C@@H](O)c1nc2cnc3ccsc3c2n1[C@H]1CC[C@H](CCS(C)(=O)=O)CC1 [Example 5, (1R)-1-(1-{trans-4-[2-(Methylsulfonyl)ethyl]cyclohexyl}-1H-imidazo[4,5-d]thieno[3,2-b]pyridin-2-yl)ethanol] | >10 |
| C[C@@H](O)c1nc2cnc3ccsc3c2n1[C@H]1CC[C@H](CCC#N)CC1 [Example 8, 3-(trans-4-{2-[(1R)-1-Hydroxyethyl]-1H-imidazo[4,5-d]thieno[3,2-b]pyridin-1-yl}cyclohexyl)propanenitrile] | >10 |
| C[C@@H](O)c1nc2cnc3ccsc3c2n1C1CCN(CCC#N)CC1 [Example 16, 3-(4-{2-[(1R)-1-Hydroxyethyl]-1H-imidazo[4,5-d]thieno[3,2-b]pyridin-1-yl}piperidin-1-yl)propanenitrile] | >10 |
| N#CC[C@H]1CC[C@H](n2c(CO)nc3cnc4ccsc4c32)CC1 [Example 17, {trans-4-[2-(Hydroxymethyl)-1H-imidazo[4,5-d]thieno[3,2-b]pyridin-1-yl]cyclohexyl}acetonitrile] | >10 |
| CS(=O)(=O)NCc1nc2cnc3ccsc3c2n1[C@H]1CC[C@H](CC#N)CC1 [Example 18, N-({1-[trans-4-(Cyanomethyl)cyclohexyl]-1H-imidazo[4,5-d]thieno[3,2-b]pyridin-2-yl}methyl)methanesulfonamide] | >10 |
| C[C@@H](O)c1nc2cnc3ccsc3c2n1[C@H]1CCC(CO)OC1 (stereo partly drawn) [Example 19, (1R)-1-{1-[(3S)-6-(Hydroxymethyl)tetrahydro-2H-pyran-3-yl]-1H-imidazo[4,5-d]thieno[3,2-b]pyridin-2-yl}ethanol] | >10 |
| C[C@@H](O)c1nc2cnc3ccsc3c2n1[C@H]1CC[C@H](CC#N)OC1 [Example 20, ((2R,5S)-5-{2-[(1R)-1-Hydroxyethyl]-1H-imidazo[4,5-d]thieno[3,2-b]pyridin-1-yl}tetrahydro-2H-pyran-2-yl)acetonitrile] | >10 |
| C[C@@H](O)c1nc2cnc3ccsc3c2n1[C@H]1CC[C@@H](CC#N)OC1 [Example 21, ((2S,5S)-5-{2-[(1R)-1-Hydroxyethyl]-1H-imidazo[4,5-d]thieno[3,2-b]pyridin-1-yl}tetrahydro-2H-pyran-2-yl)acetonitrile] | >10 |
| CS(=O)(=O)NCc1nc2cnc3ccsc3c2n1[C@H]1CC2CCC1C2 (stereo partly drawn) [Example 22, N-((1-((2S)-Bicyclo[2.2.1]heptan-2-yl)-1H-imidazo[4,5-d]thieno[3,2-b]pyridin-2-yl)methyl)methanesulfonamide] | >4 |
| CC(C)c1nc2cnc3ccsc3c2n1[C@H]1CC[C@H](CC#N)CC1 [Example 27, [trans-4-(2-Isopropyl-1H-imidazo[4,5-d]thieno[3,2-b]pyridin-1-yl)cyclohexyl]acetonitrile] | >10 |
| N#CC[C@H]1CC[C@H](n2c(C3CNC3)nc3cnc4ccsc4c32)CC1 [Example 28, [trans-4-(2-Azetidin-3-yl-1H-imidazo[4,5-d]thieno[3,2-b]pyridin-1-yl)cyclohexyl]acetonitrile] | >7 |
| CN1CC(c2nc3cnc4ccsc4c3n2[C@H]2CC[C@H](CC#N)CC2)C1 [Example 29, {trans-4-[2-(1-Methylazetidin-3-yl)-1H-imidazo[4,5-d]thieno[3,2-b]pyridin-1-yl]cyclohexyl}acetonitrile] | >9 |

Next, values leading:

| JAK2/JAK1 | SMILES |
| --- | --- |
| >10 | C[C@@H](O)c1nc2cnc3ccsc3c2n1C1CCC(O)(CC#N)CC1 (single isomer, unassigned) [24 (first peak)] |
| >2 | C[C@@H](O)c1nc2cnc3ccsc3c2n1C1CCC(NCCC#N)CC1 (single isomer, unassigned) [30 (first peak)] |
| >10 | C[C@@H](O)c1nc2cnc3ccsc3c2n1C1CCC(NCCC#N)CC1 (single isomer, unassigned) [30 (second peak)] |
| >5 | N#CCC1CCC(CO)(n2cnc3cnc4ccsc4c32)CC1 (single isomer, unassigned) [72 (second peak), [4-(Hydroxymethyl)-4-(1H-imidazo[4,5-d]thieno[3,2-b]pyridin-1-yl)cyclohexyl]acetonitrile] |
| >3 | C[C@@H](O)c1nc2cnc3ccsc3c2n1[C@H]1CCCOC1 [Example 1, (1R)-1-{1-[(3S)-Tetrahydro-2H-pyran-3-yl]-1H-imidazo[4,5-d]thieno[3,2-b]pyridin-2-yl}ethanol] |
| >10 | C[C@@H](O)c1nc2cnc3ccsc3c2n1[C@H]1CC[C@H](O)CC1 [Example 3, trans-4-{2-[(1R)-1-Hydroxyethyl]-1H-imidazo[4,5-d]thieno[3,2-b]pyridin-1-yl}cyclohexanol] |
| >6 | C[C@@H](O)c1nc2cnc3ccsc3c2n1[C@H]1CC[C@@H](n2cncn2)CC1 [Example 6, (1R)-1-{1-[cis-4-(1H-1,2,4-Triazol-1-yl)cyclohexyl]-1H-imidazo[4,5-d]thieno[3,2-b]pyridin-2-yl}ethanol] |
| >10 | C[C@@H](O)c1nc2cnc3ccsc3c2n1[C@H]1CC[C@@H](C#N)CC1 [Example 7, cis-4-{2-[(1R)-1-Hydroxyethyl]-1H-imidazo[4,5-d]thieno[3,2-b]pyridin-1-yl}cyclohexanecarbonitrile] |
| >10 | C[C@@H](O)c1nc2cnc3ccsc3c2n1[C@H]1CC[C@H](CC#N)CC1.Cl [Example 10, (trans-4-{2-[(1R)-1-Hydroxyethyl]-1H-imidazo[4,5-d]thieno[3,2-b]pyridin-1-yl}cyclohexyl)acetonitrile HCl salt] |
| >10 | C[C@@H](O)c1nc2cnc3ccsc3c2n1[C@H]1CC[C@H](CO)CC1 [Example 11, (1R)-1-{1-[trans-4-(Hydroxymethyl)cyclohexyl]-1H-imidazo[4,5-d]thieno[3,2-b]pyridin-2-yl}ethanol] |
| >10 | C[C@@H](O)c1nc2cnc3ccsc3c2n1[C@H]1CC[C@H](CF)CC1 [Example 12, (1R)-1-{1-[trans-4-(Fluoromethyl)cyclohexyl]-1H-imidazo[4,5-d]thieno[3,2-b]pyridin-2-yl}ethanol] |
| >10 | C[C@@H](O)c1nc2cnc3ccsc3c2n1C1CCCCC1 [Example 13, (1R)-1-(1-Cyclohexyl-1H-imidazo[4,5-d]thieno[3,2-b]pyridin-2-yl)ethanol] |
| >5 | CNS(=O)(=O)C[C@H]1CC[C@H](n2c([C@@H](C)O)nc3cnc4ccsc4c32)CC1 [Example 14, 1-(trans-4-{2-[(1R)-1-hydroxyethyl]-1H-imidazo[4,5-d]thieno[3,2-b]pyridin-1-yl}cyclohexyl)-N-methylmethanesulfonamide] |
| >9 | C[C@@H](O)c1nc2cnc3ccsc3c2n1C1CCN(CC(F)(F)F)CC1 [Example 15, (1R)-1-{1-[1-(2,2,2-Trifluoroethyl)piperidin-4-yl]-1H-imidazo[4,5-d]thieno[3,2-b]pyridin-2-yl}ethanol] |
| >6 | N#CC[C@H]1CC[C@H](n2/c(=N/C#N)[nH]c3cnc4ccsc4c32)CC1.O=C(O)C(F)(F)F [Example 25, {(2E)-1-[trans-4-(Cyanomethyl)cyclohexyl]-1,3-dihydro-2H-imidazo[4,5-d]thieno[3,2-b]pyridin-2-ylidene}cyanamide trifluoroacetate] |
| >10 | N#CC[C@H]1CC[C@H](n2c(C3CC3)nc3cnc4ccsc4c32)CC1 [Example 26, [trans-4-(2-Cyclopropyl-1H-imidazo[4,5-d]thieno[3,2-b]pyridin-1-yl)cyclohexyl]acetonitrile] |
| >10 | C[C@@H](O)c1nc2cnc3ccsc3c2n1C1CCCC(CCC#N)C1 (stereo partly drawn) [Example 32, 3-(3-{2-[(1R)-1-Hydroxyethyl]-1H-imidazo[4,5-d]thieno[3,2-b]pyridin-1-yl}cyclohexyl)propanenitrile] |
| >7 | Cc1nc2cnc3ccsc3n2c1-c1ccc(CC#N)cc1 [Example 33, [4-(7-Methylimidazo[1,2-a]thieno[3,2-e]pyrazin-8-yl)phenyl]acetonitrile] |
| >10 | Cc1nc2cnc3ccsc3c2n1[C@H]1CC[C@H](CC#N)OC1 [Example 38, [(2R,5S)-5-(2-Methyl-1H-imidazo[4,5-d]thieno[3,2-b]pyridin-1-yl)tetrahydro-2H-pyran-2-yl]acetonitrile] |
| >10 | CCc1nc2cnc3ccsc3c2n1[C@H]1CC[C@H](CC#N)OC1 [Example 39, [(2R,5S)-5-(2-Ethyl-1H-imidazo[4,5-d]thieno[3,2-b]pyridin-1-yl)tetrahydro-2H-pyran-2-yl]acetonitrile] |

— patent publication US9908895B2, “Tricyclic fused thiophene derivatives as JAK inhibitors” (Incyte Corporation, priority 2012, dated 2018)
